The target in series [1] is T1, Myc353–437 (Homo sapiens, UniProt P01106).
T1 construct: 6xHis tag + TEV site (N, cleaved yes); made in house; host or cells: E. coli BL21(DE3) pLysS
The series is described as follows: Circular dichroism with and without 34RH. The conditions noted are these: 2.5 µM Myc353–437, 50 µM 34RH. As for the experimental part:
(§1) Samples containing Myc353–437, Myc402–412 peptide, MaxRH, Max isoforms, or mutants in the absence and presence of excess concentrations of 34RH were prepared in 1xCD buffer (50 mM KF, 4.3 mM NaH2PO4, 1.4 mM KH2PO4, 5% ethanol). The pH of the buffer was adjusted to either 6 or 7.4 depending on the experiment conducted. The compound was delivered from a 1 mM ethanol stock solution. Samples were incubated for 1 hr before measurement. The far UV-spectra of the proteins and peptide were recorded in a quartz cuvette with a path length of 0.1 cm using a Jasco J720 spectropolarimeter. The samples were scanned from 270 to 195 nm with an increment of 1 nm, constant bandwidth of 10 nm, and a scanning speed of 1 nm per minute. After subtracting the buffer signal, the raw data in millidegrees was converted to mean residue ellipticity (MRE).

In series [2] the target is T2, MaxRH-Y115F/Y123F (Homo sapiens, UniProt P61244, K77E/M74V/Q72L/R75Q/R76A/Y115F/Y123F/Y73S).
T2 construct: 6xHis tag + TEV site (N, cleaved yes); made in house; host or cells: E. coli BL21(DE3) pLysS
In words: Circular dichroism with and without 34RH. The conditions noted are these: 1 µM MaxRH-Y115F/Y123F, 50 µM 34RH. The procedure:
as §1

Another series has as its target T3, MaxRH (Homo sapiens, UniProt P61244, K77E/M74V/Q72L/R75Q/R76A/Y73S).
T3 construct: 6xHis tag + TEV site (N, cleaved yes); made in house; host or cells: E. coli BL21(DE3) pLysS
The series is described as follows: Circular dichroism with and without 34RH. The settings on record: 1 µM MaxRH, 50 µM 34RH. The procedure:
as §1

The target of another series is T4, P21 Max (Homo sapiens, UniProt P61244).
T4 construct: 6xHis tag + TEV site (N, cleaved yes); made in house; host or cells: E. coli BL21(DE3) pLysS
The series is described as follows: Circular dichroism with and without 34RH. The conditions noted are these: 4 µM P21 Max, 50 µM 34RH, pH 7.4. As for the experimental part:
as §1

In the next series the target is T5, P22 Max (Homo sapiens, UniProt P61244).
T5 construct: 6xHis tag + TEV site (N, cleaved yes); made in house; host or cells: E. coli BL21(DE3) pLysS
In words: Circular dichroism with and without 34RH. The settings on record: 1 µM P22 Max, 50 µM 34RH, pH 7.4. The procedure:
as §1

Series [3] can be described thus: Imide pKa determination by UV/Vis. Format: physicochemical. The conditions noted are these: 1xPBS at various pH values; UV/Vis absorbance at 327 nm, 10 µM 34RH in 1xPBS; read-out: pKa of the imide group of the rhodanine heterocycle. As for the experimental part: The imide pKa of 34RH was determined using UV/Vis by measuring the absorbance of 10 µM of 34RH in 1xPBS at various pH values using an Agilent 8453 UV/Vis spectrophotometer (Figure S2). The absorbance at 327 nm for each pH value was fit to a curve using the Henderson-Hasselbalch (shown in Equations (1) and (2)), where c is the pKa, x is the pH, a is the signal for the fully protonated acid, and b is the signal for the fully ionized base. (1) pKa−pH=log acid/base (2) y=a+b∗10^c−x/1+10^c−x

For series [4], the target named is T1, Myc353–437. In words: Tyrosine fluorescence quenching titration, excess 34RH. The settings on record: 1 µM Myc353–437, excess 34RH, 1xPBS, 25 °C, pH 7.4; Langmuir binding isotherm; read-out: dissociation constant (KD). The procedure:
(§2) The lyophilized protein (or peptide) was reconstituted in ultrapure water and incubated to room temperature for at least 1 hr. The protein or peptide was then sterile filtered using a pre-wet 0.2 μm polyethylene sulfone (PES) filter (VWR), and the concentration was determined by the absorbance at 274 nm using the extinction coefficient per tyrosine of ε274 = 1470 M^−1cm^−1. The final stock concentrations ranged from 50 to 100 μM.
For excess 34RH tyrosine fluorescence quenching experiments, samples were prepared with the following buffer components: sterile filtered water, 1xPBS (137 mM NaCl, 2.7 mM KCl, 4.3 mM Na2HPO4, 1.4 mM KH2PO4), and 5% total DMSO. […] All samples for fluorescence measurements maintained a final 5% DMSO concentration.
The samples were incubated for at least 15 min before fluorescence was measured. […] The fluorescence data were background corrected using buffer (for samples with only protein) or small molecule (for samples containing protein and 34RH) (Figure S4). The absorbance due to 34RH and protein at the excitation and emission wavelengths can suppress the observed fluorescence intensity to give rise to the inner filter effect. To account for this suppression, we corrected the fluorescence signals using Equation (3). This correction accounted for the fluorescence suppression due to the absorbance of both 34RH and the protein [47]. […]

Series [5] deals with T1, Myc353–437. In words: Equimolar tyrosine fluorescence quenching titration. The settings on record: equimolar Myc353–437 and 34RH, 1x PBS, 25 °C, pH 7.4; 1:1 binding model. As for the experimental part: 5 x 1 05 y = m 1 * x/ ( m 2 + x)
Wavel ength (nm ) [34Rh] µM
Fig S5. Equimolar Myc353-437 and 34RH interaction monitored via tyrosine fluorescence quenching. (A) 50 µM Myc353-437 in the presence (filled black squares) and absence (open black squares) equimolar 34RH in 1x PBS at 25 ℃, pH 7.4. (B) Equilibrium quenching of […]
µM. Error bars represent the standard error of three independent trials. Representative fluorescence signals were inner filter corrected to account for any fluorescence suppression due the absorbance of protein and 34RH [46]. The quenching data was fitted to a binding model shown below described in Dobrev et al.
Fraction Quenched = Q!"# × $
Here, Qmax is the fraction quenched for the formation of the complete complex between Myc353-437 and 34RH. [C]tot is the total concentration of Myc353-437 or 34RH and KD the dissociation constant.

For a further series, the target named is T6, Myc402–412 peptide (Homo sapiens, UniProt P01106).
T6 construct: purchased Genscript; host or cells: solid phase peptide synthesis
The series is described as follows: Circular dichroism with and without small molecule. The conditions noted are these: 2.5 µM Myc402–412 peptide, 50 µM 34RH. The procedure:
as §1

Series [6] can be described thus: Dynamic light scattering (DLS) of 34RH. Format: physicochemical. The settings on record: for DLS correlation function (nano-sized particles): 1xPBS, 5% DMSO, pH 7.4. As for the experimental part: The small molecule (Z)-4-((4-oxo-2-thioxothiazolidin-5-ylidene)methyl)benzoic acid (hereafter referred to as 34RH) was previously synthesized according to established procedures, and the structure was confirmed by ^1H and ^13C NMR (Figure S6) using a 400 MHz spectrometer. The dry compound was stored at 4 °C. Stock solutions (1 mM) of 34RH were made using either dimethyl sulfoxide (DMSO) or ethanol and stored at −20 °C. Fluorescence and dynamic light scattering (DLS) experiments were performed using DMSO, while circular dichroism (CD) was conducted using ethanol to avoid the high absorbance of DMSO at short wavelengths. DLS measurements were performed on 34RH using an LS Spectrophotometer (LS Instruments) at 25 °C (Figure S3). The dispersant viscosity was set for water. Samples were analyzed in 1xPBS (pH 7.4) and 5% total DMSO. The compound was serially diluted two-fold from 100 μM to a final concentration of 6.25 μM. Samples were placed into 5 mm cylindrical glass cuvettes (LS Instruments) and measured using a 600 nm laser at a 90° angle for 20 s. The data were analyzed using LS Spectrophotometer software provided by the manufacturer.

Series [7] addresses T2, MaxRH-Y115F/Y123F. In words: Tyrosine fluorescence quenching titration. Format: binding. The conditions noted are these: 1 µM MaxRH-Y115F/Y123F. The procedure: as §2
For excess 34RH tyrosine fluorescence quenching experiments, samples were prepared with the following buffer components: sterile filtered water, 1xPBS (137 mM NaCl, 2.7 mM KCl, 4.3 mM Na2HPO4, 1.4 mM KH2PO4), and 5% total DMSO. The pH of the buffer was adjusted to 6 or 7.4 depending on the experiment performed. Three separate samples were prepared in 1xPBS and 5% total DMSO: one containing 50 μM 34RH alone, one containing 1 μM of protein and 50 μM 34RH, and one containing 1 μM protein alone. For the 34RH containing samples, the compound was delivered from a 1 mM DMSO stock. These samples were then serially diluted two-fold from 50 μM 34RH to 1.56 μM 34RH. All samples for fluorescence measurements maintained a final 5% DMSO concentration.
The samples were incubated for at least 15 min before fluorescence was measured. The samples were excited at 274 nm, and the emission spectra were obtained from 285 to 340 nm using 5 nm excitation and 5 nm emission slits using a Horiba Fluoromax 4 fluorometer. The fluorescence data were background corrected using buffer (for samples with only protein) or small molecule (for samples containing protein and 34RH) (Figure S4). The absorbance due to 34RH and protein at the excitation and emission wavelengths can suppress the observed fluorescence intensity to give rise to the inner filter effect. To account for this suppression, we corrected the fluorescence signals using Equation (3). This correction accounted for the fluorescence suppression due to the absorbance of both 34RH and the protein [47]. (3) Fcorr=Fobs∗ 10^Aex+ Aem/2
Here, the corrected fluorescence is Fcorr, the background-subtracted observed fluorescence is Fobs, and Aex and Aem are the total absorbance at the excitation and emission wavelengths, respectively. The amount of protein fluorescence quenched by 34RH at a particular concentration was calculated using Fcorr at λ = 304 nm (Equation (4)). (4) Fraction Quenched=1−Fcorr304nm of Protein +34RH/ Fcorr304nm of Protein only
The quenching data were fit to a Langmuir binding isotherm using Equation (5), from which the dissociation constant (KD) was obtained. Here, Qmax describes the maximum fraction quenched, [L]T is the total 34RH concentration, and [P]T is the total protein concentration. The total concentration of the protein was 1 µM for all fluoresce experiments conducted at a constant protein concentration. (5) Fraction Quenched=Qmax∗([L]T+P]T+ KD−(L]T+P]T+ KD)^2−4 ∗ L]T ∗ P]T/2∗[L]T

The source of these data is paper PMC9775153, “Portability of a Small-Molecule Binding Site between Disordered Proteins” (Biomolecules, 2022).

T1 sequence (P01106 368-452): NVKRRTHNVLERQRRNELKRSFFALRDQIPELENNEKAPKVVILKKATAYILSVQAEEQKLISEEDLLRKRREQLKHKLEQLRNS
T2 sequence (P61244 whole entry Q72L/Y73S/M74V/R75Q/R76A/K77E/Y115F/Y123F): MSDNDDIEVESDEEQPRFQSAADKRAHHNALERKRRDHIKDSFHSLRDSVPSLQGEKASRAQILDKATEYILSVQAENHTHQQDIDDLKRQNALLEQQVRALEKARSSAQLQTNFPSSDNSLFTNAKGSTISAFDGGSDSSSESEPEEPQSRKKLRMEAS
T3 sequence (P61244 whole entry Q72L/Y73S/M74V/R75Q/R76A/K77E): as the sequence (P61244 whole entry Q72L/Y73S/M74V/R75Q/R76A/K77E/Y115F/Y123F) above, with F115Y, F123Y counted along it
T4 sequence (P61244 1-151 isoform P61244-2): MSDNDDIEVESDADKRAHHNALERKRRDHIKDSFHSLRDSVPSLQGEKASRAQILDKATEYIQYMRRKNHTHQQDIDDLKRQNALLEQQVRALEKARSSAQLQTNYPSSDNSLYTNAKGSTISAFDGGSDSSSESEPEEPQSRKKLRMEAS
T5 sequence (P61244 whole entry): as the sequence (P61244 whole entry Q72L/Y73S/M74V/R75Q/R76A/K77E/Y115F/Y123F) above, with L72Q, S73Y, V74M, Q75R, A76R, E77K, F115Y, F123Y counted along it

With `O=C1NC(=S)S/C1=C\c1ccc(C(=O)O)cc1` [34RH, (Z)-4-((4-oxo-2-thioxothiazolidin-5-ylidene)methyl)benzoic acid], the “effect on average conformation (CD)” value on Myc353–437 [1] is “did not substantially alter the average conformation”. The “effect on conformation (CD)” value on MaxRH-Y115F/Y123F [2] is on record as “remains disordered”; on MaxRH (pH 6), “remaining disordered”; on MaxRH (pH 7.4), “did not change the conformation”. For the same molecule, the “effect on CD spectrum” value is “no indication of perturbation” at P21 Max and “does not alter the CD” at P22 Max. In addition, the pKa in series [3] was determined as 5.3 ± 0.3. Further, the Kd came to 3.9 ± 1.3 µM at Myc353–437 [4], 5.9 ± 0.8 µM on Myc353–437 [5] and 14.9 ± 1.9 µM at MaxRH-Y115F/Y123F [7]. The “effect on structural ensemble (CD)” value on Myc402–412 peptide is “does not exhibit perturbations to the structural ensemble”. Moreover, the “DLS correlation function (nano-sized particles)” value in [6] (100 µM) is “a correlation was observed”; in series [6] (concentrations below 50 µM), “no correlation function”. In addition, in series [6] (neutral pH), the “solubility based on dynamic light scattering” value is given as “good solubility”.
